Source: ChEMBL document CHEMBL3352216, “Triterpene glycosides from red ginseng marc and their anti-inflammatory activities” (Bioorg Med Chem Lett, 2014)
Converted amounts (≈) assume the structure as drawn. Each block holds one compound with its values, some of them ahead of it. The source made the active and inactive calls. The calls are words filed in the database; no cut-off is given here.

Columns and labels:
RAW264.7 [1] = experiment: Antiinflammatory activity in LPS-stimulated mouse RAW264.7 cells assessed as reduction in TNFalpha expression at 80 uM co-incubated with LPS for 24 hrs by RT-PCR method relative to untreated control; assay type: functional
RAW264.7 [2] = experiment: Antiinflammatory activity in LPS-stimulated mouse RAW264.7 cells assessed as reduction in COX2 expression at 80 uM co-incubated with LPS for 24 hrs by RT-PCR method relative to untreated control; assay type: functional
RAW264.7 [3] = experiment: Antiinflammatory activity in LPS-stimulated mouse RAW264.7 cells assessed as reduction in nitric oxide production at 80 uM after 24 hrs by Griess method based ELISA (reference value: 52.4 +/- 0.9 uM); assay type: functional
RAW264.7 [4] = experiment: Antiinflammatory activity in LPS-stimulated mouse RAW264.7 cells assessed as reduction in IL6 expression at 80 uM co-incubated with LPS for 24 hrs by RT-PCR method relative to untreated control; assay type: functional
RAW264.7 [5] = experiment: Antiinflammatory activity in LPS-stimulated mouse RAW264.7 cells assessed as reduction in IL6 level at 40 uM co-incubated with LPS for 24 hrs by ELISA method; assay type: functional, cell-based
[6] = Cytotoxicity against LPS-stimulated mouse RAW264.7 cells assessed as cell viability at 40 uM after 24 hrs by MTT assay (reference value: 100%); assay type: cell-based; settings: LPS-stimulated RAW264.7 cells, read-out: Activity
RAW264.7 [7] = experiment: Antiinflammatory activity in LPS-stimulated mouse RAW264.7 cells assessed as reduction in IL6 expression at 40 uM co-incubated with LPS for 24 hrs by RT-PCR method relative to untreated control; assay type: functional
RAW264.7 [8] = experiment: Antiinflammatory activity in LPS-stimulated mouse RAW264.7 cells assessed as reduction in IL-1beta expression at 40 uM co-incubated with LPS for 24 hrs by RT-PCR method relative to untreated control; assay type: functional
RAW264.7 [9] = experiment: Antiinflammatory activity in LPS-stimulated mouse RAW264.7 cells assessed as reduction in iNOS expression at 80 uM co-incubated with LPS for 24 hrs by RT-PCR method relative to untreated control; assay type: functional
RAW264.7 [10] = experiment: Induction of iNOS mRNA expression in LPS-non-stimulated mouse RAW264.7 cells by RT-PCR method; assay type: cell-based
RAW264.7 [11] = experiment: Antiinflammatory activity in LPS-stimulated mouse RAW264.7 cells assessed as reduction in IL-1beta expression at 80 uM co-incubated with LPS for 24 hrs by RT-PCR method relative to untreated control; assay type: functional
RAW264.7 [12] = experiment: Antiinflammatory activity in LPS-stimulated mouse RAW264.7 cells assessed as reduction in iNOS expression at 120 uM co-incubated with LPS for 24 hrs by RT-PCR method relative to untreated control; assay type: functional
RAW264.7 [13] = experiment: Antiinflammatory activity in LPS-stimulated mouse RAW264.7 cells assessed as reduction in nitric oxide production at 40 uM after 24 hrs by Griess method based ELISA (reference value: 52.4 +/- 0.9 uM); assay type: functional
RAW264.7 [14] = experiment: Antiinflammatory activity in LPS-stimulated mouse RAW264.7 cells assessed as reduction in TNFalpha expression at 120 uM co-incubated with LPS for 24 hrs by RT-PCR method relative to untreated control; assay type: functional
RAW264.7 [15] = experiment: Antiinflammatory activity in LPS-stimulated mouse RAW264.7 cells assessed as reduction in IL6 expression at 120 uM co-incubated with LPS for 24 hrs by RT-PCR method relative to untreated control; assay type: functional
[16] = Cytotoxicity against LPS-stimulated mouse RAW264.7 cells assessed as cell viability at 80 uM after 24 hrs by MTT assay (reference value: 100%); assay type: cell-based; settings: LPS-stimulated RAW264.7 cells, read-out: Activity
[17] = Cytotoxicity against LPS-stimulated mouse RAW264.7 cells assessed as cell viability at 120 uM after 24 hrs by MTT assay (reference value: 100%); assay type: cell-based; settings: LPS-stimulated RAW264.7 cells, read-out: Activity
RAW264.7 [18] = experiment: Antiinflammatory activity in LPS-stimulated mouse RAW264.7 cells assessed as reduction in TNFalpha expression at 40 uM co-incubated with LPS for 24 hrs by RT-PCR method relative to untreated control; assay type: functional
RAW264.7 [19] = experiment: Antiinflammatory activity in LPS-stimulated mouse RAW264.7 cells assessed as reduction in nitric oxide production at 120 uM after 24 hrs by Griess method based ELISA (reference value: 52.4 +/- 0.9 uM); assay type: functional
RAW264.7 [20] = experiment: Antiinflammatory activity in LPS-stimulated mouse RAW264.7 cells assessed as reduction in COX2 expression at 120 uM co-incubated with LPS for 24 hrs by RT-PCR method relative to untreated control; assay type: functional
RAW264.7 [21] = experiment: Antiinflammatory activity in LPS-stimulated mouse RAW264.7 cells assessed as reduction in IL-1beta expression at 120 uM co-incubated with LPS for 24 hrs by RT-PCR method relative to untreated control; assay type: functional
RAW264.7 [22] = experiment: Antiinflammatory activity in LPS-stimulated mouse RAW264.7 cells assessed as reduction in iNOS expression at 40 uM co-incubated with LPS for 24 hrs by RT-PCR method relative to untreated control; assay type: functional
RAW264.7 [23] = experiment: Antiinflammatory activity in LPS-stimulated mouse RAW264.7 cells assessed as reduction in COX2 expression at 40 uM co-incubated with LPS for 24 hrs by RT-PCR method relative to untreated control; assay type: functional
RAW264.7 [24] = experiment: Antiinflammatory activity in LPS-stimulated mouse RAW264.7 cells assessed as reduction in iNOS expression co-incubated with LPS for 24 hrs by RT-PCR method relative to untreated control; assay type: functional, cell-based
RAW264.7 [25] = experiment: Antiinflammatory activity in LPS-stimulated mouse RAW264.7 cells assessed as reduction in nitric oxide production after 24 hrs by Griess method based ELISA; assay type: functional, cell-based; settings: RAW264.7, 24 h
RAW264.7 [26] = experiment: Antiinflammatory activity in LPS-stimulated mouse RAW264.7 cells assessed as reduction in nitric oxide production at 3 uM after 24 hrs by Griess method based ELISA (reference value: 52.4 +/- 0.9 uM); assay type: functional
[27] = Cytotoxicity against LPS-stimulated mouse RAW264.7 cells assessed as cell viability at 3 uM after 24 hrs by MTT assay (reference value: 100%); assay type: cell-based; settings: LPS-stimulated RAW264.7 cells, read-out: Activity
[28] = Cytotoxicity against LPS-stimulated mouse RAW264.7 cells assessed as cell viability at 1.5 uM after 24 hrs by MTT assay (reference value: 100%); assay type: cell-based; settings: LPS-stimulated RAW264.7 cells, read-out: Activity
RAW264.7 [29] = experiment: Antiinflammatory activity in LPS-stimulated mouse RAW264.7 cells assessed as reduction in nitric oxide production at 1.5 uM after 24 hrs by Griess method based ELISA (reference value: 52.4 +/- 0.9 uM); assay type: functional

IC50 (RAW264.7 [25]): 86.7 µg/mL (≈ 94.9 µM)
SMILES: CC(C)=CCC[C@@H](C)[C@H]1CC[C@@]2(C)[C@@H]3CC=C4C(C)(C)[C@@H](O[C@@H]5O[C@H](CO[C@@H]6O[C@H](CO[C@@H]7O[C@H](CO)[C@@H](O)[C@H](O)[C@H]7O)[C@@H](O)[C@H](O)[C@H]6O)[C@@H](O)[C@H](O)[C@H]5O)CC[C@]4(C)[C@H]3CC[C@]12C
fold change (FC) (RAW264.7 [1]): 1 | fold change (FC) (RAW264.7 [2]): 0.8 | Activity (RAW264.7 [3]): 27.5 µM | fold change (FC) (RAW264.7 [4]): 1 | inhibition (RAW264.7 [5]): Active | viability at 24 h, 40 µM [6]: 121% | fold change (FC) (RAW264.7 [7]): 0.9 | fold change (FC) (RAW264.7 [8]): 1 | fold change (FC) (RAW264.7 [9]): 1.1 | Activity (RAW264.7 [10]): Non-toxic | fold change (FC) (RAW264.7 [11]): 1.1 | fold change (FC) (RAW264.7 [12]): 0.6 | Activity (RAW264.7 [13]): 40.9 µM | fold change (FC) (RAW264.7 [14]): 0.5 | fold change (FC) (RAW264.7 [15]): 0.6 | viability at 24 h, 80 µM [16]: 145% | viability at 24 h, 120 µM [17]: 155% | fold change (FC) (RAW264.7 [18]): 0.9 | Activity (RAW264.7 [19]): 19.8 µM | fold change (FC) (RAW264.7 [20]): 0.4 | fold change (FC) (RAW264.7 [21]): 0.5 | fold change (FC) (RAW264.7 [22]): 1 | fold change (FC) (RAW264.7 [23]): 0.7 | inhibition (RAW264.7 [24]): Dose-dependent effect

SMILES: O=c1c(O)c(-c2ccc(O)c(O)c2)oc2cc(O)cc(O)c12 [QUERCETIN]
Activity (RAW264.7 [26]): 13.5 µM | viability at 24 h, 3 µM [27]: 104% | viability at 24 h, 1.5 µM [28]: 104% | IC50 (RAW264.7 [25]): 2.9 µg/mL (≈ 9.6 µM) | Activity (RAW264.7 [29]): 20.8 µM
